Test results from PubChem BioAssay (NCI).
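GI50 marks 50% less growth. TGI: concentration producing complete growth inhibition.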

Columns and labels:
Experiment in all cases: NCI anticancer screen, dose series, 384-well format
A498 renal = tested on: A498 renal
A549 NSCLC = tested on: A549 NSCLC
ACHN renal = tested on: ACHN renal
BT-549 breast = tested on: BT-549 breast
CAKI-1 renal = tested on: CAKI-1 renal
COLO 205 colon = tested on: COLO 205 colon
DU-145 prostate = tested on: DU-145 prostate
EKVX NSCLC = tested on: EKVX NSCLC
HCC-2998 colon = tested on: HCC-2998 colon
HCT-116 colon = tested on: HCT-116 colon
HCT-15 colon = tested on: HCT-15 colon
HL-60(TB) leukemia = tested on: HL-60(TB) leukemia
HOP-62 NSCLC = tested on: HOP-62 NSCLC
HOP-92 NSCLC = tested on: HOP-92 NSCLC
HS 578T breast = tested on: HS 578T breast
HT29 colon = tested on: HT29 colon
IGROV1 ovarian = tested on: IGROV1 ovarian
KM12 colon = tested on: KM12 colon
LOX IMVI melanoma = tested on: LOX IMVI melanoma
MCF7 breast = tested on: MCF7 breast
MDA-MB-231 breast = tested on: MDA-MB-231 breast
MDA-MB-435 melanoma = tested on: MDA-MB-435 melanoma
MDA-MB-468 breast = tested on: MDA-MB-468 breast
MOLT-4 leukemia = tested on: MOLT-4 leukemia
NCI-H226 lung = tested on: NCI-H226 lung
NCI-H322M lung = tested on: NCI-H322M lung
NCI-H460 NSCLC = tested on: NCI-H460 NSCLC
NCI-H522 lung = tested on: NCI-H522 lung
NCI/ADR-RES ovarian = tested on: NCI/ADR-RES ovarian
OVCAR-3 ovarian = tested on: OVCAR-3 ovarian
OVCAR-4 ovarian = tested on: OVCAR-4 ovarian
OVCAR-5 ovarian = tested on: OVCAR-5 ovarian
OVCAR-8 ovarian = tested on: OVCAR-8 ovarian
PC-3 prostate = tested on: PC-3 prostate
RPMI-8226 leukemia = tested on: RPMI-8226 leukemia
SF-268 CNS = tested on: SF-268 CNS
SF-295 CNS = tested on: SF-295 CNS
SF-539 CNS = tested on: SF-539 CNS
SK-MEL-28 melanoma = tested on: SK-MEL-28 melanoma
SK-MEL-5 melanoma = tested on: SK-MEL-5 melanoma
SK-OV-3 ovarian = tested on: SK-OV-3 ovarian
SN12C renal = tested on: SN12C renal
SNB-19 CNS = tested on: SNB-19 CNS
SNB-75 CNS = tested on: SNB-75 CNS
SR leukemia = tested on: SR leukemia
T-47D breast = tested on: T-47D breast
TK-10 renal = tested on: TK-10 renal
U251 glioblastoma = tested on: U251 glioblastoma
UACC-257 melanoma = tested on: UACC-257 melanoma

FC(F)c1nc2ccccc2n1-c1nc(N2CCOCC2)nc(N2CCOCC2)n1
GI50 (A498 renal): 0.101 µM | TGI (A498 renal): 0.351 µM | GI50 (A549 NSCLC): 0.645 µM | TGI (A549 NSCLC): > 100 µM | GI50 (ACHN renal): 0.187 µM | TGI (ACHN renal): 1.41 µM | GI50 (BT-549 breast): 0.207 µM | TGI (BT-549 breast): 1.79 µM | GI50 (CAKI-1 renal): 0.216 µM | TGI (CAKI-1 renal): > 100 µM | GI50 (COLO 205 colon): 0.246 µM | TGI (COLO 205 colon): 1.98 µM | GI50 (DU-145 prostate): 0.352 µM | TGI (DU-145 prostate): 2.39 µM | GI50 (EKVX NSCLC): 0.169 µM | TGI (EKVX NSCLC): 1.55 µM | GI50 (HCC-2998 colon): 0.0231 µM | TGI (HCC-2998 colon): 2.12 µM | GI50 (HCT-116 colon): 1.35 µM | TGI (HCT-116 colon): > 100 µM | GI50 (HCT-15 colon): 0.33 µM | TGI (HCT-15 colon): > 100 µM | GI50 (HL-60(TB) leukemia): 0.138 µM | TGI (HL-60(TB) leukemia): 0.896 µM | GI50 (HOP-62 NSCLC): 0.42 µM | TGI (HOP-62 NSCLC): 3.96 µM | GI50 (HOP-92 NSCLC): 0.303 µM | TGI (HOP-92 NSCLC): > 100 µM | GI50 (HS 578T breast): 0.202 µM | TGI (HS 578T breast): 2.14 µM | GI50 (HT29 colon): 0.454 µM | TGI (HT29 colon): > 100 µM | GI50 (IGROV1 ovarian): 0.044 µM | TGI (IGROV1 ovarian): 0.237 µM | GI50 (KM12 colon): 1.4 µM | TGI (KM12 colon): > 100 µM | GI50 (LOX IMVI melanoma): 0.598 µM | TGI (LOX IMVI melanoma): 4.15 µM | GI50 (MCF7 breast): 0.0843 µM | TGI (MCF7 breast): > 100 µM | GI50 (MDA-MB-231 breast): 0.957 µM | TGI (MDA-MB-231 breast): > 100 µM | GI50 (MDA-MB-435 melanoma): 0.918 µM | TGI (MDA-MB-435 melanoma): 4.75 µM | GI50 (MDA-MB-468 breast): 0.202 µM | TGI (MDA-MB-468 breast): 2.09 µM | GI50 (MOLT-4 leukemia): 0.166 µM | TGI (MOLT-4 leukemia): 0.716 µM | GI50 (NCI-H226 lung): 0.324 µM | TGI (NCI-H226 lung): 3.02 µM | GI50 (NCI-H322M lung): 0.281 µM | TGI (NCI-H322M lung): 1.98 µM | GI50 (NCI-H460 NSCLC): 0.224 µM | TGI (NCI-H460 NSCLC): 2.14 µM | GI50 (NCI-H522 lung): 0.198 µM | TGI (NCI-H522 lung): 0.894 µM | GI50 (NCI/ADR-RES ovarian): 0.507 µM | TGI (NCI/ADR-RES ovarian): > 100 µM | GI50 (OVCAR-3 ovarian): 0.174 µM | TGI (OVCAR-3 ovarian): 1.08 µM | GI50 (OVCAR-4 ovarian): 0.0252 µM | TGI (OVCAR-4 ovarian): 1.53 µM | GI50 (OVCAR-5 ovarian): 0.133 µM | TGI (OVCAR-5 ovarian): 0.759 µM | GI50 (OVCAR-8 ovarian): 0.641 µM | TGI (OVCAR-8 ovarian): > 100 µM | GI50 (PC-3 prostate): 0.056 µM | TGI (PC-3 prostate): 0.825 µM | GI50 (RPMI-8226 leukemia): 0.172 µM | TGI (RPMI-8226 leukemia): 0.608 µM | GI50 (SF-268 CNS): 1.54 µM | TGI (SF-268 CNS): > 100 µM | GI50 (SF-295 CNS): 0.25 µM | TGI (SF-295 CNS): 2.37 µM | GI50 (SF-539 CNS): 0.475 µM | TGI (SF-539 CNS): > 100 µM | GI50 (SK-MEL-28 melanoma): 0.402 µM | TGI (SK-MEL-28 melanoma): > 100 µM | GI50 (SK-MEL-5 melanoma): 0.191 µM | TGI (SK-MEL-5 melanoma): 1.29 µM | GI50 (SK-OV-3 ovarian): 0.282 µM | TGI (SK-OV-3 ovarian): 5 µM | GI50 (SN12C renal): 0.0198 µM | TGI (SN12C renal): 0.38 µM | GI50 (SNB-19 CNS): 3.37 µM | TGI (SNB-19 CNS): > 100 µM | GI50 (SNB-75 CNS): 0.154 µM | TGI (SNB-75 CNS): 13.9 µM | GI50 (SR leukemia): 0.147 µM | TGI (SR leukemia): 0.896 µM | GI50 (T-47D breast): 0.171 µM | TGI (T-47D breast): 5.38 µM | GI50 (TK-10 renal): 0.224 µM | TGI (TK-10 renal): 1.74 µM | GI50 (U251 glioblastoma): 1.23 µM | TGI (U251 glioblastoma): > 100 µM | GI50 (UACC-257 melanoma): 0.278 µM | TGI (UACC-257 melanoma): 4.26 µM
